We go through 30 molecules from US6967196B1, “Sulfonamide compounds and uses thereof” (Bristol-Myers Squibb Company, priority 1999, dated 2005).

Where a name gives a salt, the structure may show the parent alone. Where only a bound is given, the exact number is not on record here.

One test deals with amyloid β production in transfected H4 (human neuroglioma) cells stably expressing APP constructs. Put plainly: In vitro cell-based assay of inhibitors of amyloid β production (ELISA). Particulars: Homo sapiens, 16 h, transfected H4 cells expressing APP, approximately 16 hours incubation, amyloid β in medium by ELISA; read-out: ACTIVITY (IC50, inhibition of amyloid β production). The essentials:
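Plate wt/variant APP cells; ≥6 h later swap to medium + compound (10-100 μM screen); incubate ~16 h; sample medium; Aβ ELISA with C-terminal capture / N-terminal detection Abs; quantify vs Aβ standard curve.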
A general note: In an ELISA, binding on a coated surface is turned into a signal by an enzyme label.
As to `C[C@H](COC(=O)NCCn1ccnc1)N(c1cc(Cl)ccc1CO)S(=O)(=O)c1ccc(Cl)cc1` [Example 1293], the IC50 is more than 10000 nM.
Consider `CCCNC(=O)OC[C@@H](C)N(c1cc(Cl)ccc1CO)S(=O)(=O)c1ccc(Cl)cc1` [Example 1281], for which the half-inhibitory concentration (IC50) is not above 25 nM.

The test is the same for the next values; noted with them: Homo sapiens, 16 h, transfected H4 cells stably expressing APP constructs; approximately 16 hours incubation; amyloid β in medium by ELISA; read-out: ACTIVITY (IC50, inhibition of amyloid β production).
Turning to `CNS(=O)(=O)CCC[C@@H](C)N(c1cc(Cl)ccc1F)S(=O)(=O)c1ccc(Cl)cc1` [Example 1203, 4-chloro-N-(5-chloro-2-fluorophenyl)-N-[4-[(methylamino)sulfonyl]-1(R)-methylbutyl]benzenesulfonamide], the IC50 was not above 25 nM.
As for `C[C@H](CCCS(N)(=O)=O)N(c1cc(Cl)ccc1CO)S(=O)(=O)c1ccc(Cl)cc1` [Example 1235, 4-chloro-N-[5-chloro-2-(hydroxymethyl)phenyl]-N-[4-(aminosulfonyl)-1(R)-methylbutyl]benzenesulfonamide], the IC50 was not above 25 nM.
As for `C[C@H](CCCS(=O)(=O)N1CCSCC1)N(c1cc(Cl)ccc1Cl)S(=O)(=O)c1ccc(Cl)cc1` [Example 1211, 4-chloro-N-[2,5-dichlorophenyl]-N-[4-[(4-thiomorpholinyl)sulfonyl]-1(R)-methylbutyl]benzenesulfonamide], the IC50 is not above 25 nM.

The same test, now with this note: Homo sapiens, 16 h, transfected H4 cells stably expressing APP; approx. 16 h incubation; amyloid β in medium by ELISA; read-out: ACTIVITY (IC50, inhibition of amyloid β production).
As to `CC(C)NC(=O)N(C)CCOc1ccccc1C(C)N(c1cc(F)ccc1F)S(=O)(=O)c1ccc(Cl)cc1` (stereo not drawn) [Example 695, 4-chloro-N-(2,5-difluorophenyl)-N-[1-(2-{2-[[(isopropylamino)carbonyl](methyl)amino]ethoxy}phenyl)ethyl]benzenesulfonamide], the IC50 was in the range of 100 to 500 nM.

The test is the same for the next values; noted with them: Homo sapiens, 16 h, transfected H4 cells stably expressing APP; approximately 16 hours incubation; amyloid β in medium by ELISA; read-out: ACTIVITY (IC50, inhibition of amyloid β production).
With `C[C@H](c1ccccc1OCCCN1CCCCC1)N(c1cc(F)ccc1F)S(=O)(=O)c1ccc(Cl)cc1` [Example 1061, 4-chloro-N-(2,5-difluorophenyl)-N-((1R)-1-{2-[3-(1-piperidinyl)propoxy]phenyl}ethyl)benzenesulfonamide hydrochloride], the IC50 was more than 500 nM.
`CCC1CCCCN1CCCOc1ccccc1CN(c1ccccc1)S(=O)(=O)c1ccc(Cl)cc1` (stereo not drawn) [Example 865, 4-chloro-N-{2-[3-(2-ethyl-1-piperidinyl)propoxy]benzyl}-N-phenylbenzenesulfonamide hydrochloride]: the IC50 fell in the range of 100 to 500 nM.
Still for that read-out and setting: in the case of `C[C@H](c1ccccc1CCO)N(c1cc(F)ccc1F)S(=O)(=O)c1ccc(Cl)cc1` [Example 1055, 4-chloro-N-(2,5-difluorophenyl)-N-{(1R)-1-[2-(2-hydroxyethyl)phenyl]ethyl}benzenesulfonamide] it was more than 500 nM; in that of `Cc1cccc(C(=O)N2CCCCC2CCOc2ccccc2CN(c2cc(F)ccc2F)S(=O)(=O)c2ccc(Cl)cc2)c1` (stereo not drawn) [Example 860, 4-chloro-N-(2,5-difluorophenyl)-N-(2-{2-[1-(3-methylbenzoyl)-2-piperidinyl]ethoxy}benzyl)benzenesulfonamide], 100 to 500 nM.

The test is the same for the next values; noted with them: transfected H4 cells stably expressing APP constructs; approximately 16 hours incubation; amyloid β in medium by ELISA; read-out: ACTIVITY (IC50, inhibition of amyloid β production).
In the case of `C[C@H](CC[S+]([O-])CC(=O)O)N(c1cc(Cl)ccc1Cl)S(=O)(=O)c1ccc(Cl)cc1` (stereo partly drawn) [Example 1196, (6R)-6-[(2,5-dichlorophenyl)-[(4-chlorophenyl)sulfonyl]-amino]-3-thioheptanoic acid, 3-oxide], the IC50 is more than 500 nM.
For the molecule `C[C@H](CCCS(C)(=O)=O)N(c1cc(Cl)ccc1CO)S(=O)(=O)c1ccc(Cl)cc1` [Example 1225, 4-chloro-N-[5-chloro-2-(hydroxymethyl)phenyl]-N-[1(R)-methyl-(4-methylsulfonyl)butyl]benzenesulfonamide], the IC50 was not above 25 nM.

Still in this test, the particulars now being: transfected H4 cells stably expressing APP; approx. 16 h incubation; amyloid β in medium by ELISA; read-out: ACTIVITY (IC50, inhibition of amyloid β production).
Regarding “S-ethyl 4-[2-(1-{[(4-chlorophenyl)sulfonyl]-2,5-difluoroanilino}ethyl)phenoxy]butyl(ethyl)thiocarbamate [Example 790]”, the IC50 is 100 to 500 nM.
Regarding `COC(=O)[C@H](CC(C)C)NC(=O)CCC[C@@H](C)N(c1cc(Cl)ccc1F)S(=O)(=O)c1ccc(Cl)cc1` [Example 541], the IC50 was in the range of 100 to 500 nM.
For “N-{3-[2-(1-{[(4-chlorophenyl)sulfonyl]-2,5-difluoroanilino}ethyl)phenoxy]propyl}-4-methoxy-N-methylbenzamide [Example 652]”, the IC50 was 100 to 500 nM.
On to “2-((1R)-1-{[(4-chlorophenyl)sulfonyl]-2,5-difluoroanilino}ethyl)benzyl 4-fluorobenzylcarbamate [Example 748]”, for which the IC50 is 100 to 500 nM.
Regarding “3-[2-((1R)-1-{[(4-chlorophenyl)sulfonyl]-2,5-difluoroanilino}ethyl)phenyl]propyl phenylcarbamate [Example 730]”, the IC50 was 100 to 500 nM.
“2-((1R)-1-{[(4-chlorophenyl)sulfonyl]-2,5-difluoroanilino}ethyl)benzyl cyclohexylcarbamate [Example 675]”: the IC50 lay in the range of 100 to 500 nM.
With “3-[2-((1R)-1-{[(4-chlorophenyl)sulfonyl]-2,5-difluoroanilino}ethyl)phenyl]-N-isopropylpropanamide [Example 655]”, the IC50 is 100 to 500 nM.

The test is the same for the next values; noted with them: transfected H4 cells stably expressing APP; approximately 16 hours incubation; amyloid β in medium by ELISA; Table B; read-out: ACTIVITY (IC50, inhibition of amyloid β production).
On to `O=C1CCN(CCCOc2ccccc2CN(c2ccccc2)S(=O)(=O)c2ccc(Cl)cc2)CC1` [Example 307, 4-Chloro-N-{2-[3-(4-oxo-1-piperidinyl)propoxy]benzyl}-N-phenylbenzenesulfonamide Hydrochloride], for which the IC50 fell in the range of 50 to 100 nM.

Staying with this test, now noted: transfected H4 cells stably expressing APP; approximately 16 hours incubation; amyloid β in medium by ELISA; read-out: ACTIVITY (IC50, inhibition of amyloid β production).
As to “ethyl (2R)-2-{[(4-chlorophenyl)sulfonyl]-2,5-difluoroanilino}propanoate [Example 1060]”, the IC50 was more than 500 nM.
As to “4-chloro-N-{3-[2-(1-{[(4-chlorophenyl)sulfonyl]-2,5-difluoroanilino}ethyl)phenoxy]propyl}-N-methyl-3-nitrobenzenesulfonamide [Example 807]”, the IC50 lay within 100 to 500 nM.
Regarding “N-{3-[2-(1-{[(4-chlorophenyl)sulfonyl]-2,5-difluoroanilino}ethyl)phenoxy]ethyl}-N-methyl-3,5-bis(trifluoromethyl)benzamide [Example 931]”, the IC50 is more than 500 nM.
For “N-{4-[2-(1-{[(4-chlorophenyl)sulfonyl]-2,5-difluoroanilino}ethyl)phenoxy]butyl}-N-ethylcyclopropanecarboxamide [Example 959]”, the IC50 is more than 500 nM.
On the same count and under the same terms, the figure for “2-((1R)-1-{[(4-chlorophenyl)sulfonyl]-2,5-difluoroanilino}ethyl)benzyl 3-fluorobenzylcarbamate [Example 910]” is more than 500 nM; for “4-chloro-N-(2,5-difluorophenyl)-N-[(1R)-1-(4-[(ethylsulfonyl)amino]butyl}-4-fluorophenyl)ethyl]benzenesulfonamide [Example 1075]” it is more than 500 nM.
As for “(2R)-2-{[(4-chlorophenyl)sulfonyl]-2,5-difluoroanilino}propanoic acid [Example 1013]”, the IC50 is more than 500 nM.
On the same count and under the same terms, in the case of `C[C@@H]1CCC[C@H](C)N1CCCOc1ccccc1CN(c1ccccc1)S(=O)(=O)c1ccc(Cl)cc1` [Example 812, 4-chloro-N-(2-{3-(2R, 6S)-2,6-dimethylpiperidinyl]propoxy}benzyl)-N-phenylbenzenesulfonamide hydrochloride] it was 100 to 500 nM; in that of “N-{3-[2-({[(4-chlorophenyl)sulfonyl]-2,5-difluoroanilino}methyl)phenoxy]propyl}-2,4-dimethoxy-N-methylbenzamide [Example 834]”, 100 to 500 nM; in that of “3-bromo-N-{3-[2-(1-{[(4-chlorophenyl)sulfonyl]-2,5-difluoroanilino}ethyl)phenoxy]propyl}-N-methylbenzamide [Example 820]”, 100 to 500 nM.

Usually IC50 stands for the point on the concentration scale where inhibition reaches its midpoint.
